Results from patent publication US20240400606A1, “SMALL MOLECULE ACTIVATORS OF THE IMMUNE SYSTEM” (THE BOARD OF TRUSTEES OF THE UNIVERSITY OF ILLINOIS, priority 2021, published 2024).
“Also recorded” adds a separate entry of the source.

Key:
[1] = tested on: whole cell CS levels in MCF-7; assay: Whole cell cholesterol sulfate quantification, MCF-7; type: cell-based, human; conditions: for whole cell CS levels vs DMSO: MCF-7, 6.25 μM compound, 72 hours
Method: (§1) General Whole Cell Cholesterol Sulfate Quantification. 60×15 mm tissue culture dishes were seeded with MCF-7 at 2×10^6 cells/dish or T47D at 1×10^6 cells per dish, 5 mL total media volume, and allowed to adhere overnight. Compounds of interest were dissolved in DMSO. Cells were treated with 25 μL 1.25 mM compound of interest stock (6.25 μM final compound concentration, 0.5% final DMSO concentration) or DMSO for 72 hours. To harvest, media was aspirated, and cells were washed once with PBS before detaching with trypsin. Trypsin was quenched with media. Cells were centrifuged at 300 xg for 3 minutes and supernatant was discarded. Cells were resuspended in media and counted using a Countess 3 automated cell counter (Thermo Fisher Scientific). 1.5×10^6 cells were collected, washed twice with 1 mL PBS, then pelleted and stored at −80° C. until lysis. Cell pellets were resuspended in 200 μL cold 70:30 methanol:water and placed on ice. Cell suspension was sonicated on ice (30%, 10 s on, 20 s off, 1 min total) and continued to be incubated on ice for 30 minutes. Lysate was clarified by centrifugation at 14,100 xg at 4° C. for 30 minutes. 100 μL of supernatant was transferred to an empty Eppendorf tube and submitted for LC-MS/MS quantification (UIUC Metabolomics Center), along with 5 mM cholesterol sulfate sodium salt standard.
as §1, with “Time Course Whole Cell” for “General Whole Cell”, “2×10^6 cells/dish per dish,” for “2×10^6 cells/dish or T47D at 1×10^6 cells per dish,”, “DMSO for 0 (harvested immediately), 4, 8, 24, 48, or 72 hours.” for “DMSO for 72 hours.”
Whole Cell Cholesterol Sulfate Quantification with Compound Removal. 60×15 mm tissue culture dishes were seeded with MCF-7 at 2×10^6 cells/dish, 5 mL total media volume, and allowed to adhere overnight. Compounds of interest were dissolved in DMSO. Cells were treated with 25 μL 1.25 mM compound of interest stock (6.25 μM final compound concentration, 0.5% final DMSO concentration) for 0 hours (harvested immediately) or 24 hours. Media was aspirated and replaced with 5 mL fresh media, then cells were either harvested (24 hour time point) or further incubated. To harvest, media was aspirated, and cells were washed once with PBS before detaching with trypsin. Trypsin was quenched with media. Cells were centrifuged at 300 xg for 3 minutes and supernatant was discarded. Cells were resuspended in media and counted using a Countess 3 automated cell counter (Thermo Fisher Scientific). 1.5×10^6 cells were collected, washed twice with 1 mL PBS, then pelleted and stored at −80° C. until lysis. Cell pellets were resuspended in 200 μL cold 70:30 methanol:water and placed on ice. Cell suspension was sonicated on ice (30%, 10 s on, 20 s off, 1 min total) and continued to be incubated on ice for 30 minutes. Lysate was clarified by centrifugation at 14,100 xg at 4° C. for 30 minutes. […]

[2] = target: SULT2B1b (Homo sapiens (Human), UniProt O00204); assay: LC-MS/MS based in vitro assay (DHEA-sulfate formation); type: biochemical; conditions: 100 μM compound, 2 hours; mean±s.e.m., n=3
Sequence of SULT2B1b (O00204 whole entry): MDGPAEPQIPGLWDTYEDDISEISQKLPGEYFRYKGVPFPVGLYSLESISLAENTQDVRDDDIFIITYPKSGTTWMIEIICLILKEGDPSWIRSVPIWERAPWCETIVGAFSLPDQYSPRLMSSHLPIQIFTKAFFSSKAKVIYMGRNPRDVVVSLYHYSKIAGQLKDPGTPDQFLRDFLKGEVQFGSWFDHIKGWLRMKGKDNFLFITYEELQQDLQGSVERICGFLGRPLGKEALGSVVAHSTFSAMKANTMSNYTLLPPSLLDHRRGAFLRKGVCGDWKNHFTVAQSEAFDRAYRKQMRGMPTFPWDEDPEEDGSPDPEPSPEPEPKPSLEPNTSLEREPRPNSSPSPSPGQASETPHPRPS
Method: LC-MS/MS Based In Vitro Assay. Stock solutions of DHEA (5 mM in DMSO) and compound of interest (5 mM in DMSO) were prepared. […] SULT2B1b was diluted to 1.5 μg/μL in protein storage buffer then down to 0.8 μg/μL in 1× activity assay buffer. 30 μL of 0.8 μg/μL SULT2B1b was added to each reaction. Reactions were incubated for 2 hours at 37° C. with shaking at 250 rpm. To quench, 30 μL reaction mix was added to 30 μL ice cold 0.5% HCl in MeCN, then centrifuged at 13,000 xg at room temperature for 3 min. 50 μL supernatant was transferred to an empty Eppendorf tube and submitted for LC-MS/MS quantification (UIUC Metabolomics Center), along with 5 mM DHEA sulfate standard. Controls: Reaction mix made with DHEA and DMSO in place of compound of interest (DHEA control). […] General LC-MS/MS Quantification Method. Both DHEAS and CS samples were analyzed by 6500 QTRAP (Sciex, Redwood City, CA) liquid chromatography-tandem mass spectrometry. […] The flow rate was 0.3 mL/min. […] The source temperature was 400° C. […] Cholesterol-sulfate and DHEA-sulfate were detected by multiple reaction monitoring (MRM) at m/z 465→97.0 and 367.0→97.0 respectively. Software Analyst 1.7.1 ([…]) was used for data acquisition and analysis.

C[C@]12CCC(=O)N(Cc3ccc(Br)cc3)C1=CC[C@@H]1[C@@H]2C(=O)C[C@]2(C)C(=O)CC[C@@H]12 [Compound 3, (4aR,4bS,6aS,9aS,9bS)-1-(4-bromobenzyl)-4a,6a-dimethyl-3,4,4a,6,6a,8,9,9a,9b,10-decahydro-1H-indeno[5,4-f]quinoline-2,5,7(4bH)-trione]
whole cell CS levels vs DMSO [1]: significant decrease
whole cell CS levels vs DMSO ([1]; listed as 2-273): significantly decrease; also recorded: significant (p=0.0003) reduction
CS level rebound after compound removal ([1]; MCF-7, 6.25 μM for 24 hours, then compound-free media up to 48 hours): did not rebound
time of constant treatment to significantly decreased whole cell CS levels ([1]; MCF-7, 6.25 μM, time course): ≤ 24 h
treatment concentration showing a decrease in CS levels (whole cell dose response) ([1]; MCF-7, 72 hour treatment): ≤ 0.097 µM
inhibition at 100 µM [2]: 72.8 ± 0.1%

C[C@]12CC[C@H](O)CC1=CC[C@@H]1[C@@H]2CC[C@]2(C)C(n3cnc4ccccc43)=CC[C@@H]12 [Compound 2, Galeterone, reference compound]
whole cell CS levels vs DMSO [1]: did decrease CS levels
inhibition at 100 µM [2]: 57 ± 0.7%

C[C@]12CCC(=O)N(Cc3ccc(Cl)cc3)C1=CC[C@@H]1[C@@H]2C(=O)C[C@]2(C)C(=O)CC[C@@H]12 [Compound 1, (4aR,4bS,6aS,9aS,9bS)-1-(4-chlorobenzyl)-4a,6a-dimethyl-3,4,4a,6,6a,8,9,9a,9b,10-decahydro-1H-indeno[5,4-f]quinoline-2,5,7(4bH)-trione]
whole cell CS levels vs DMSO [1]: significantly decrease
inhibition at 100 µM [2]: 67.8 ± 0.5%
